Test results published in the supplement of paper PMC11208160.

Assay: recombinant UMI read abundance after kanamycin selection (control-corrected) (log10(CPM+1)); higher = more efficient recombination; extreme values may be limits of the assay; sequences stand for … in AGTGCAGAGAAAATCGGCCAGTTTTCTCTGCCTGCAGTCCGCATGCCGTGGGACCCCTTGGGTTCTAACCTGTTGCCTAGATTTATGCAGCGGACTGCCTTTCTCCCAAAGTGATAAACCGG…AGGTTGGTTTCACT; site = the 11-nt donor
Procedure, shortened: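 Sequenced counts of recombinant UMIs were turned into CPM, averaged across replicates and scaled with control-derived factors. The reported figure is log10(CPM+1). Those UMIs, each 12 nt long, tagged donor and donor-binding-loop pairs on a plasmid with a promoterless kanamycin gene, screened as a pool in Escherichia coli with IPTG (0.07 mM) plus kanamycin or without selection.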
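Further: IS621 bridge recombinase in Escherichia coli cells against a fixed T5 target plasmid.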

Sequence	recombinant UMI read abundance (log10)
CCTAAAGCATGGACCGGTTTTCCCGGTAATCCGTATTTGAG (site CCTAAAGCTTT)	0
CCTAAAGCATGGACCGGTTTTCCCGGTAATCCGTATTTGCT (site CCTAAAGCTAA)	0.00467
CCTAAAGCATGGACCGGTTTTCCCGGTAATCCGTATTTGCT (site CCTAAAGCTAC)	0
CCTAAAGCATGGACCGGTTTTCCCGGTAATCCGTATTTGCT (site CCTAAAGCTAG)	0
CCTAAAGCATGGACCGGTTTTCCCGGTAATCCGTATTTGCT (site CCTAAAGCTAT)	0
CCTAAATCATGGACCGGTTTTCCCGGTAATCCGTATTTGCA (site CCTAAATCTTG)	0
CCTAAGTCATGGACCGGTTTTCCCGGTAATCCGTATTTGCA (site CCTAAGTCTTG)	0
CCTAATACATGGACCGGTTTTCCCGGTAATCCGTATTTGGT (site CCTAATACTAC)	0
CCTAATACATGGACCGGTTTTCCCGGTAATCCGTATTTGGT (site CCTAATACTCC)	0.0104
CCTAATACATGGACCGGTTTTCCCGGTAATCCGTATTTGGT (site CCTAATACTGC)	0
CCTAATACATGGACCGGTTTTCCCGGTAATCCGTATTTGGT (site CCTAATACTTC)	0
CCTAATACATGGACCGGTTTTCCCGGTAATCCGTATTTGTC (site CCTAATACTGA)	0
CCTAATACATGGACCGGTTTTCCCGGTAATCCGTATTTGTC (site CCTAATACTGC)	0
CCTAATACATGGACCGGTTTTCCCGGTAATCCGTATTTGTC (site CCTAATACTGG)	0
CCTAATACATGGACCGGTTTTCCCGGTAATCCGTATTTGTC (site CCTAATACTGT)	0
CCTAATGCATGGACCGGTTTTCCCGGTAATCCGTATTTGGC (site CCTAATACTGC)	0
CCTAATGCATGGACCGGTTTTCCCGGTAATCCGTATTTGGC (site CCTAATCCTGC)	0
CCTAATGCATGGACCGGTTTTCCCGGTAATCCGTATTTGGC (site CCTAATGCTGC)	0
CCTAATGCATGGACCGGTTTTCCCGGTAATCCGTATTTGGC (site CCTAATTCTGC)	0
CCTACGGCATGGACCGGTTTTCCCGGTAATCCGTATTTGCG (site CCTACGGCTCG)	0.00682
CCTATGGCATGGACCGGTTTTCCCGGTAATCCGTATTTGGT (site CCTATGGCTAC)	0.012
CCTATTTCATGGACCGGTTTTCCCGGTAATCCGTATTTGAA (site CCTATTTCTTT)	0
CCTCAGCCATGGACCGGTTTTCCCGGTAATCCGTATTTGGC (site CCTCAGCCTGC)	0

Sequence	recombinant UMI read abundance (log10)
CCTCCTTCATGGACCGGTTTTCCCGGTAATCCGTATTTGCT (site CCTCCTTCTAG)	0
CCTCGTACATGGACCGGTTTTCCCGGTAATCCGTATTTGGT (site CCTCGTACTAC)	0.0115
CCTGAACCATGGACCGGTTTTCCCGGTAATCCGTATTTGGT (site CCTGAACCTAC)	0.00702
CCTGATACATGGACCGGTTTTCCCGGTAATCCGTATTTGTA (site CCTGATACTTA)	0.326
CCTGCCCCATGGACCGGTTTTCCCGGTAATCCGTATTTGGC (site CCTGCCCCTGC)	0
CCTGGCTCATGGACCGGTTTTCCCGGTAATCCGTATTTGCA (site CCTGGCTCTTG)	0
CCTGTAACATGGACCGGTTTTCCCGGTAATCCGTATTTGCA (site CCTGTAACTTG)	0
CCTGTACCATGGACCGGTTTTCCCGGTAATCCGTATTTGCG (site CCTGTACCTCG)	0.0076
CCTTAGCCATGGACCGGTTTTCCCGGTAATCCGTATTTGAA (site CCTTAGCCTTT)	0
CCTTATACATGGACCGGTTTTCCCGGTAATCCGTATTTGAG (site CCTTATACTCT)	0.0212
CCTTCTCCATGGACCGGTTTTCCCGGTAATCCGTATTTGTG (site CCTTCTCCTCA)	0.0156
CCTTCTTCATGGACCGGTTTTCCCGGTAATCCGTATTTGGG (site CCTTCTTCTCC)	0.00401
CCTTCTTCATGGACCGGTTTTCCCGGTAATCCGTATTTGTC (site CCTTCTTCTGA)	0
CCTTTAGCATGGACCGGTTTTCCCGGTAATCCGTATTTGTG (site CCATTAGCTCA)	0.00718
CCTTTAGCATGGACCGGTTTTCCCGGTAATCCGTATTTGTG (site CCCTTAGCTCA)	0.00968
CCTTTAGCATGGACCGGTTTTCCCGGTAATCCGTATTTGTG (site CCGTTAGCTCA)	0.00885
CCTTTAGCATGGACCGGTTTTCCCGGTAATCCGTATTTGTG (site CCTTTAGCTCA)	0.0063
CCTTTGCCATGGACCGGTTTTCCCGGTAATCCGTATTTGGC (site CCTTTGCCTGC)	0
CCTTTGTCATGGACCGGTTTTCCCGGTAATCCGTATTTGGA (site CCTTTGTCTTC)	0.00278
CGAAAAGCATGGACCGGTTTTCCCGGTAATCCGTATTTGCA (site CGAAAAGCTTG)	0
CGAAAGACATGGACCGGTTTTCCCGGTAATCCGTATTTGGG (site CGAAAGACTCC)	0.621
CGAAAGACATGGACCGGTTTTCCCGGTAATCCGTATTTGGT (site CGAAAGACTAC)	2
CGAAAGGCATGGACCGGTTTTCCCGGTAATCCGTATTTGCT (site AGAAAGGCTAG)	0

Sequence	recombinant UMI read abundance (log10)
CGAAAGGCATGGACCGGTTTTCCCGGTAATCCGTATTTGCT (site CGAAAGGCTAG)	2.39
CGAAAGGCATGGACCGGTTTTCCCGGTAATCCGTATTTGCT (site GGAAAGGCTAG)	0
CGAAAGGCATGGACCGGTTTTCCCGGTAATCCGTATTTGCT (site TGAAAGGCTAG)	0
CGAACCACATGGACCGGTTTTCCCGGTAATCCGTATTTGTG (site CGAACCACTCA)	0.523
CGAACGACATGGACCGGTTTTCCCGGTAATCCGTATTTGTT (site CGAACGACTAA)	1.08
CGAACGACATGGACCGGTTTTCCCGGTAATCCGTATTTGTT (site CGACCGACTAA)	0.00483
CGAACGACATGGACCGGTTTTCCCGGTAATCCGTATTTGTT (site CGAGCGACTAA)	0.0306
CGAACGACATGGACCGGTTTTCCCGGTAATCCGTATTTGTT (site CGATCGACTAA)	0.00769
CGAACTCCATGGACCGGTTTTCCCGGTAATCCGTATTTGGG (site CGAACTCCTCC)	0.143
CGAAGACCATGGACCGGTTTTCCCGGTAATCCGTATTTGGG (site CGAAGACCTCC)	0
CGAAGACCATGGACCGGTTTTCCCGGTAATCCGTATTTGGG (site CGACGACCTCC)	0.0149
CGAAGACCATGGACCGGTTTTCCCGGTAATCCGTATTTGGG (site CGAGGACCTCC)	0.0232
CGAAGACCATGGACCGGTTTTCCCGGTAATCCGTATTTGGG (site CGATGACCTCC)	0.006
CGAAGTCCATGGACCGGTTTTCCCGGTAATCCGTATTTGCG (site CGAAGTCCTCG)	1.21
CGAATAACATGGACCGGTTTTCCCGGTAATCCGTATTTGCC (site CGAATAACTGG)	0.484
CGACAATCATGGACCGGTTTTCCCGGTAATCCGTATTTGAC (site CGACAATCTGT)	2.86
CGACCAACATGGACCGGTTTTCCCGGTAATCCGTATTTGAT (site GAGGGGCCTTC)	0.006
CGACCATCATGGACCGGTTTTCCCGGTAATCCGTATTTGGT (site CGACCATCTAC)	0.825
CGACCATCATGGACCGGTTTTCCCGGTAATCCGTATTTGGT (site CGATCATCTAG)	0
CGACCCTCATGGACCGGTTTTCCCGGTAATCCGTATTTGCT (site CGACCCTCTAG)	3.63
CGACCCTCATGGACCGGTTTTCCCGGTAATCCGTATTTGCT (site CGATCATCTAG)	0
CGACGACCATGGACCGGTTTTCCCGGTAATCCGTATTTGAC (site CGACGACCTGT)	0
